# Experimental data as given in patent US6638953B2, “Indole derivatives as 5-HT receptor antagonist” (SmithKline Beecham p.l.c., priority 1995, dated 2003).
row,melting point,SMILES
1,209 to 211 °C,COc1cc2c(cc1C(F)(F)F)N(C(=O)Nc1cccc(-c3ccc(CN(C)C)cc3)c1)CC2 [Example 98]
2,192 to 193 °C,COc1cc2c(cc1C(F)(F)F)N(C(=O)Nc1cccc(-c3cccnc3)c1)CC2 [Example 83]
3,229 to 231 °C,COc1cc2c(cc1C(F)(F)F)N(C(=O)Nc1cccc(-c3ccc(C)nn3)c1)CC2 [Example 121]
4,179 to 180 °C,COc1cc2c(cc1C(F)(F)F)N(C(=O)Nc1cccc(-c3cccnc3C)c1)CC2 [Example 110]
5,> 240 °C,COc1cc2c(cc1C(F)(F)F)N(C(=O)Nc1cccc(-c3ccc[nH]3)c1)CC2 [Example 102]
6,208 to 210 °C,Cc1cc2c(cc1C(F)(F)F)N(C(=O)Nc1cccc(-c3cccnc3)c1)CC2 [Example 103]
7,183 to 185 °C,COc1cc2c(cc1C(F)(F)F)N(C(=O)Nc1cc(Cl)cc(-c3cccnc3)c1)CC2 [Example 106]
8,211 to 215 °C,"COc1cc2c(cc1C(F)(F)F)N(C(=O)Nc1cccc(-c3cncc4ccccc34)c1)CC2 [Example 34, 1-[3-(4-Isoquinolyl)phenylcarbamoyl]-5-methoxy-6-trifluoromethyl Indoline]"
9,153 to 154 °C,COc1cc2c(cc1C(F)(F)F)N(C(=O)Nc1cc(-c3ccncc3)cc(-c3cccnc3)c1)CC2 [Example 115]
10,174 to 175 °C,"COc1cc2c(cc1C(F)(F)F)N(C(=O)Nc1ccc(CSc3ccncc3)cc1)CC2 [Example 60, 5-Methoxy-6-trifluoromethyl-1-[4-(pyridin-4-ylthiomethyl)phenyl Carbamoyl]indoline]"
11,188 to 190 °C,COc1cc2c(cc1C(F)(F)F)N(C(=O)Nc1cccc(COc3cccnc3)c1)CC2 [Example 139]
12,215 to 218 °C,"COc1cc2c(cc1C(F)(F)F)N(C(=O)Nc1ccc3c(ccn3Cc3ccncc3)c1)CC2 [Example 72, 1-(1-(4-Pyridylmethyl)-5-indolylcarbamoyl)-5-methoxy-6-trifluoromethylindoline]"
13,185 to 187 °C,COc1cc2c(cc1C(F)(F)F)N(C(=O)Nc1cccc(-c3cccc(CN(C)C)c3)c1)CC2 [Example 99]
14,245 to 250 °C,COc1cc2c(cc1C(F)(F)F)N(C(=O)Nc1cccc(-c3cncnc3)c1)CC2 [Example 119]
15,233 °C (dec.),"COc1cc2c(cc1C(F)(F)F)N(C(=O)Nc1cc(-c3cccnc3)ccc1F)CC2 [Example 9, 1-[2-Fluoro-5-(3-pyridyl) Phenyl Carbamoyl]-5-methoxy-6-trifluoromethyl Indoline]"
16,213 to 215 °C,COc1cc2c(cc1C(F)(F)F)N(C(=O)Nc1cccc(-c3ccc(N(C)C)cc3)c1)CC2 [Example 97]
17,202 to 204 °C,COc1cc2c(cc1C(F)(F)F)N(C(=O)Nc1cccc(-c3c(C)ccnc3C)c1)CC2 [Example 111]
18,208 to 209 °C,COc1cc2c(cc1C(F)(F)F)N(C(=O)Nc1cccc(-c3cnccn3)c1)CC2 [Example 120]
19,174 to 176 °C,COc1cc2c(cc1C(F)(F)F)N(C(=O)Nc1cc(C(C)=O)cc(-c3cccnc3)c1)CC2 [Example 107]
20,213 to 215 °C,COc1cc2c(cc1C(F)(F)F)N(C(=O)Nc1cc(F)cc(-c3ccc(C)nc3)c1)CC2 [Example 116]
21,113 to 115 °C,COc1cc2c(cc1C(F)(F)F)N(C(=O)Nc1cncc(-c3ccc(F)c(Cl)c3)c1)CC2 [Example 93]
22,190 to 191 °C,"COc1cc2c(cc1C(F)(F)F)N(C(=O)Nc1cncc(-c3ccc(C)cc3)c1)CC2 [Example 14, 1-[5-(4-Methylphenyl)-pyrid-3-yl Carbamoyl]-5-methoxy-6-trifluoromethyl Indoline]"

# More lines, now with the values behind:
row,SMILES,melting point
1,O=C(Nc1ccc(F)c(-c2cccnc2)c1)N1CCc2cc(Cl)c(Cl)cc21 [Example 135],200 to 202 °C
2,COc1cc2c(cc1C(F)(F)F)N(C(=O)Nc1cc(-c3cccnc3)cc(C(F)(F)F)c1)CC2 [Example 105],220 to 222 °C
3,CSc1cc2c(cc1C(F)(F)F)N(C(=O)Nc1cccc(C(=O)NCc3cccnc3)c1)CC2 [Example 148],210 to 215 °C
4,COc1cc2c(cc1C(F)(F)F)N(C(=O)Nc1ccc(Oc3cccc(C#N)c3)nc1)CC2 [Example 175],136 to 138 °C
5,O=C(Nc1ccc(F)c(-c2cccnc2)c1)N1CCc2cc(Br)c(C(F)(F)F)cc21 [Example 174],200 to 201 °C
6,COc1cc2c(cc1C(F)(F)F)N(C(=O)Nc1ccc(Oc3ccc(C#N)cc3)nc1)CC2 [Example 176],188 to 189 °C
7,COc1cc2c(cc1C(F)(F)F)N(C(=O)Nc1cc(OC(F)(F)F)cc(-c3cccnc3)c1)CC2 [Example 122],168 to 170 °C
8,CSc1cc2c(cc1C(F)(F)F)N(C(=O)Nc1cccc(C(O)CCc3ccccn3)c1)CC2 (stereo not shown) [Example 150],78 to 80 °C
9,"CSc1cc2c(cc1C(F)(F)F)N(C(=O)Nc1ccc(C(=O)NCc3cccnc3)cc1)CC2 [Example 68, 5-Methylthio-6-trifluoromethyl-1-[4-(pyrid-3-ylmethyl)amido Phenyl Carbamoyl]indoline]",> 250 °C
10,COc1cc2c(cc1C(F)(F)F)N(C(=O)Nc1ccc(OC(F)(F)F)c(-c3cccnc3)c1)CC2 [Example 123],99 to 100 °C
11,"COc1cc2c(cc1C(F)(F)F)N(C(=O)Nc1ccc3c(ccn3-c3cccnc3)c1)CC2 [Example 73, 1-(1-(3-Pyridyl)-5-indolylcarbamoyl)-5-methoxy-6-trifluoromethyl Indoline]",202 to 204 °C
12,"CSc1cc2c(cc1C(F)(F)F)N(C(=O)Nc1ccc(Oc3ccc(C)nc3)nc1)CC2 [Example 66, 5-Methylthio-6-trifluoromethyl-1-[6-(6-methylpyridin-3-yloxy)pyridin-3-ylcarbamoyl]indoline]",206 to 208 °C
13,COc1cc2c(cc1C(F)(F)F)N(C(=O)Nc1cc(F)cc(-c3cccnn3)c1)CC2 [Example 118],230 to 231 °C
14,COc1cc2c(cc1C(F)(F)F)N(C(=O)Nc1ccc(Oc3ccc(C)nc3C)nc1)CC2 [Example 166],230 to 233 °C
15,CSc1cc2c(cc1C(F)(F)F)N(C(=O)Nc1ccc(Sc3cccnc3)nc1)CC2 [Example 144],204 to 206 °C
16,COc1cc2c(cc1C(F)(F)F)N(C(=O)Nc1ccc(-n3cccn3)nc1)CC2 [Example 96],> 225 °C
17,COc1cc2c(cc1C(F)(F)F)N(C(=O)Nc1cncc(-c3ccccc3CO)c1)CC2 [Example 92],190 to 192 °C
18,CSc1cc2c(cc1C(F)(F)F)N(C(=O)Nc1ccc(Sc3ccncc3)nc1)CC2 [Example 145],214 to 216 °C
19,COc1cc2c(cc1C(F)(F)F)N(C(=O)Nc1cc(F)c(C)c(-c3cccnc3)c1)CC2 [Example 124],244 to 247 °C
20,"COc1cc2c(cc1C(F)(F)F)N(C(=O)Nc1cc(Br)c(C)c(-c3cccnc3)c1)CC2 [Example 33, 1-[3-Bromo-4-methyl-5-(3-pyridyl)phenylcarbamoyl]-5-methoxy-6-trifluoromethylindoline]",216 to 218 °C

row,SMILES,melting point
1,"COc1cc2c(cc1C(F)(F)F)N(C(=O)Nc1ccc(Oc3cnccc3C)nc1)CC2 [Example 82, 5-Methoxy-6-trifluoromethyl-1-[6-(4-methylpyridin-3-yloxy)pyridin-3-ylcarbamoyl]indoline]",188 to 191 °C
2,Cc1cc2c(cc1Cl)N(C(=O)Nc1ccc(F)c(-c3cncnc3)c1)CC2 [Example 171],211 to 213 °C
3,Cc1ncccc1Oc1ccc(NC(=O)N2CCc3cc(Br)c(C(F)(F)F)cc32)cn1,211 to 213 °C
4,COc1cc2c(cc1C(F)(F)F)N(C(=O)Nc1ccc(Oc3ccc(C(N)=O)cc3)nc1)CC2 [Example 163],245 to 248 °C
5,CSc1cc2c(cc1C(F)(F)F)N(C(=O)Nc1ccc(-c3cncc(Cl)c3)nc1)CC2 [Example 142],193 to 195 °C
6,COc1cc2c(cc1C(F)(F)F)N(C(=O)Nc1ccc(C)c(-c3cnccc3C)c1)CC2 [Example 109],153 to 155 °C
7,"COc1cc2c(cc1C(F)(F)F)N(C(=O)Nc1ccc(-c3cccnc3)nc1)CC2 [Example 36, 1-[6-(3-Pyridyl)-pyrid-3-ylcarbamoyl]-5-methoxy-6-trifluoromethylindoline]",> 270 °C
8,"COc1cc2c(cc1C(F)(F)F)N(C(=O)Nc1ccc(Sc3cccnc3)nc1)CC2 [Example 67, 5-Methoxy-6-trifluoromethyl-1-[6-(pyridin-3-ylthio)pyridin-3-ylcarbamoyl]indoline]",208 to 210 °C
9,COc1cc2c(cc1C(F)(F)F)N(C(=O)Nc1cncc(-c3cc(F)cc(F)c3)c1)CC2 [Example 88],226 to 229 °C
10,COc1cc2c(cc1C(F)(F)F)N(C(=O)Nc1cc(F)cc(-c3cnc(C)cc3C)c1)CC2 [Example 127],215 to 218 °C
11,COc1cc2c(cc1C(F)(F)F)N(C(=O)Nc1cccc(-c3cccnc3)c1Cl)CC2 [Example 85],214 to 216 °C
12,COc1cccc(Oc2ccc(NC(=O)N3CCc4cc(OC)c(C(F)(F)F)cc43)cn2)c1 [Example 158],188 to 189 °C
13,COc1cc2c(cc1C(F)(F)F)N(C(=O)Nc1cc(F)cc(-c3cnccn3)c1)CC2 [Example 126],230 to 231 °C
14,Cc1ncccc1Oc1ccc(NC(=O)N2CCc3cc(Cl)c(Cl)cc32)cn1 [Example 168],225 to 228 °C
15,"COc1cc2c(cc1C(F)(F)F)N(C(=O)Nc1cncc(-c3ccc[nH]3)c1)CC2 [Example 17, 1-[5-(2-Pyrrolyl)-pyrid-3-yl Carbamoyl]-5-methoxy-6-trifluoromethyl Indoline]",218 to 219 °C
16,CSc1cc2c(cc1C(F)(F)F)N(C(=O)Nc1cnc(-c3cccnc3)c(Cl)c1)CC2 [Example 141],245 to 250 °C
17,COc1cc2c(cc1C(F)(F)F)N(C(=O)Nc1ccc(Oc3c(C)ccnc3C)nc1)CC2 [Example 156],218 to 221 °C
18,COc1cc2c(cc1C(F)(F)F)N(C(=O)Nc1cnc(-c3cccnc3)c(C)c1)CC2 [Example 140],230 to 232 °C
19,COc1cc2c(cc1C(F)(F)F)N(C(=O)Nc1cc(F)c(C)c(N3C=CC=NC3)c1)CC2 [Example 128],188 to 189 °C
